This note sets out measurements from article PMC3222680 (PLoS ONE, 2011).

Molecules are shown by their SMILES.

The target of assay [1] is homomeric α1Y27′A GlyR (Homo sapiens, UniProt P23415, Y307A). Conditions: HEK293. On the procedure: (§1) The human GlyR α1 and β subunit cDNAs were subcloned into the pcDNA3.1zeo+ (Invitrogen) or pGEMHE [44] plasmid vectors for expression in HEK293 cells or Xenopus oocytes, respectively. Site-directed mutagenesis and chimera construction were performed using the QuickChange (Stratagene, La Jolla, CA, USA) mutagenesis and multiple-template-based sequential PCR protocols, respectively.
Sequence of homomeric α1Y27′A GlyR (P23415 29-457 Y307A): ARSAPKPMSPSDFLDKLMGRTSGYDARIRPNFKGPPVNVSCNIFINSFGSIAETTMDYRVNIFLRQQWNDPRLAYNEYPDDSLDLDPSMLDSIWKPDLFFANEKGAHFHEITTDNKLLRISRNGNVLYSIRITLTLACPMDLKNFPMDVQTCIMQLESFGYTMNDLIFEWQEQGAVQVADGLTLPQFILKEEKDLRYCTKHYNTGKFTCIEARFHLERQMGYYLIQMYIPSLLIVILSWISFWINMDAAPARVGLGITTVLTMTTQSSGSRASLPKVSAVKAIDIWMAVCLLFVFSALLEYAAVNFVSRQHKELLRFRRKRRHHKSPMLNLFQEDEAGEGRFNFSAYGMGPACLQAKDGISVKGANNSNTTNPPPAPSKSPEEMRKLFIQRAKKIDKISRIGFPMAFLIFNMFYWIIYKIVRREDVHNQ
The effects of the hyperekplexia-mimicking mutations, K24′A, V25′A and Y27′A, were examined on GlyRs expressed in HEK293 cells (ATCC). Details of the HEK293 cell culture, GlyR expression and electrophysiological recording of the HEK293 cells are described elsewhere. Briefly, HEK293 cells were maintained in DMEM supplemented with 10% fetal bovine serum. Cells were transfected using a calcium phosphate precipitation protocol. When co-transfecting the α1 together with the β or any other chimera subunits, their respective cDNAs were combined in a ratio of 1∶10. In addition, the pEGFP-N1 (Clontech) was co-transfected to facilitate identifying the transfected cells. […] Cells were treated with external Ringer's solution and internal CsCl solution [30]. Cells were voltage-clamped at −40 mV. When the heteromeric GlyRs were expressed, the picrotoxin sensitivity was tested to confirm that the majority of receptors are heteromers, [30].

Assay [2] has as its target αWT αT-β19′C GlyR (Homo sapiens, UniProt P23415+P48167, A317C/C137A/C313A/C69A/Q95A). Conditions: MTSR-labeled, oocytes. On the procedure: as §1
(§2) For the VCF experiments, both GlyR α1 and β subunit cDNAs in the pGEMHE vector were mutated to substitute non-essential background cysteines with alanines, including α1C41A and βC115AC291A [46], [47].
(§3) VCF experiments were performed on GlyRs expressed in Xenopus laevis oocytes. Female Xenopus laevis frogs were purchased from Xenopus Express, France. Details of oocyte preparation, GlyR expression and VCF recording are described elsewhere. Briefly, the mMessage mMachine kit (Ambion, Austin, TX) was used to generate capped mRNA. The mRNA was injected into oocytes of the female Xenopus laevis frog with 10 ng (1 ng α1 and 9 ng β or any other chimeric subunits) per oocyte. After injection, the oocytes were incubated in ND96 solution [33] for 3–4 days at 18 °C before recording.
(§4) The sulfhydryl-reactive reagent, sulforhodamine methanethiosulfonate (MTSR, Toronto Research Chemicals, North York, Ontario, Canada), was used to label 19′C residues. […] The oocytes were then transferred to the recording chamber and perfused with ND96 solution. The current was recorded by the two-electrode voltage clamp configuration and the recording electrode was filled with 3 M KCl. Cells were voltage-clamped at −40 mV. The fluorescence was recorded using the PhotoMax 200 photodiode detection system (Dagan Corp., Minneapolis, MN).
(§5) Results are expressed as mean±standard error of the mean of three or more independent experiments. […] Statistical significance was determined using the Student's t-test.

In assay [3] the target is αWT αB-β19′C GlyR (Homo sapiens, UniProt P23415+P48167, A80Q/C69A). Conditions: MTSR-labeled, oocytes. On the procedure: as §1, §2, §3, §4, §5
Sequence of αWT αB-β19′C GlyR (P23415 29-449 isoform P23415-2 C69A): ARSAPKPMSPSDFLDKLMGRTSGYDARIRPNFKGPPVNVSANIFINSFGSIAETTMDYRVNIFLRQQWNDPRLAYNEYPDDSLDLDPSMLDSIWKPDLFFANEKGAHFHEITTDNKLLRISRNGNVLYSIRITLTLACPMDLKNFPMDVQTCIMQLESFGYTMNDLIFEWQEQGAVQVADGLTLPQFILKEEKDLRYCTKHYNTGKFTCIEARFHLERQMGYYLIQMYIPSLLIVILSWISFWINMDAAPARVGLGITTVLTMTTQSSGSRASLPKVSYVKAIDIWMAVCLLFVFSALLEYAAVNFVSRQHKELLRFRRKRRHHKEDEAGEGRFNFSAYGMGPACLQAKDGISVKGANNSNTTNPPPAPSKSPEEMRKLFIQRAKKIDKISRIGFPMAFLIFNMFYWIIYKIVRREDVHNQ
Sequence of αWT αB-β19′C GlyR (P23415+P48167 fused with the stated changes): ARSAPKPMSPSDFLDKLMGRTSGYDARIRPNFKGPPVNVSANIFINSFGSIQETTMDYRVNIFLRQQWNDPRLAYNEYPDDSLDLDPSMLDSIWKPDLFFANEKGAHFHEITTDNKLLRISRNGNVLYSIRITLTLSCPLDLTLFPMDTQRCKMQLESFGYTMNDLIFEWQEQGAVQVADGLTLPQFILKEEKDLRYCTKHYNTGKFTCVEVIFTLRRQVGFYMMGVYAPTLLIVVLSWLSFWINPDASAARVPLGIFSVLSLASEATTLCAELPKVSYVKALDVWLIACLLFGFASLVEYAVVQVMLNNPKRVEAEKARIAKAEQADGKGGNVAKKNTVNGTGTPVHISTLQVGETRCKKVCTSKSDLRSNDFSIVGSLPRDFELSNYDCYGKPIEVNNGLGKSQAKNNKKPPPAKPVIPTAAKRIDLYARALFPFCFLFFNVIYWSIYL
Assay [4] has as its target αWT β19′C GlyR (Homo sapiens, UniProt P23415+P48167, A317C/C137A/C313A/C69A). Conditions: MTSR-labeled, oocytes. On the procedure: as §1, §2, §3, §4, §5
The target in assay [5] is αWT α-β19′C GlyR (Homo sapiens, UniProt P23415+P48167, C69A). Conditions: MTSR-labeled, oocytes. On the procedure: as §1, §2, §3, §4, §5
Sequence of αWT α-β19′C GlyR (P23415 29-449 isoform P23415-2 C69A): as the sequence (P23415 29-449 isoform P23415-2 C69A) above
Sequence of αWT α-β19′C GlyR (P23415+P48167 fused with the stated changes): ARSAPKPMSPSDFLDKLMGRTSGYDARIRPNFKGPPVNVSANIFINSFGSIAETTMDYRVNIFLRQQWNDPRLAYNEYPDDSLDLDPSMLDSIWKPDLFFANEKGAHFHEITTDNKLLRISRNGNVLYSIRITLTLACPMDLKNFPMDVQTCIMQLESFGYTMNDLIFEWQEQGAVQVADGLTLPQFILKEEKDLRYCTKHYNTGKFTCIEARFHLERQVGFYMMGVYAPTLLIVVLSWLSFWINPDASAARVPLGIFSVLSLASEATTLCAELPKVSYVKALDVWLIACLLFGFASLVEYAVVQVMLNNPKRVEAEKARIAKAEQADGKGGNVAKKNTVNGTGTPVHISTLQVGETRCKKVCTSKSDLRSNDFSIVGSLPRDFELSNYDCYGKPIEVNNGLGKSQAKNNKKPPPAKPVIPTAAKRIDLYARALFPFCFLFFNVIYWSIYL
Assay [6] has as its system α-β, β-α, αB-β and αT-β subunits expressed alone. Conditions: chimeric subunits expressed alone in oocytes; data not shown. On the procedure: as §3, §4

Sequence of αWT β19′C GlyR (P23415 29-449 isoform P23415-2 C69A): as the sequence (P23415 29-449 isoform P23415-2 C69A) above
Sequence of αWT β19′C GlyR (P48167 23-497 C137A/C313A/A317C): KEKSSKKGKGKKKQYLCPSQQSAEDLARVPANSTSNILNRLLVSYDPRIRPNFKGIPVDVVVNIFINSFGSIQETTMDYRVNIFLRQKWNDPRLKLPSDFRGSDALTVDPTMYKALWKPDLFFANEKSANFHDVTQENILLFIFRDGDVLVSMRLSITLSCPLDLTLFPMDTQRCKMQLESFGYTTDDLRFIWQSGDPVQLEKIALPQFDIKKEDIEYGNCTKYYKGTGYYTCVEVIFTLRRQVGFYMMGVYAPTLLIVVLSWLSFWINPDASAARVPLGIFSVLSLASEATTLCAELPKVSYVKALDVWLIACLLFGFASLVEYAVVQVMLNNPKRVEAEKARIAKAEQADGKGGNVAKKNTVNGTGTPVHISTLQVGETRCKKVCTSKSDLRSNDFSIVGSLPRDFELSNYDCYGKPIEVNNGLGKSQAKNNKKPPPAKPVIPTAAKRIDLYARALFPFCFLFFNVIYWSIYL
Sequence of αWT αT-β19′C GlyR (P23415 29-449 isoform P23415-2 C69A): as the sequence (P23415 29-449 isoform P23415-2 C69A) above
Sequence of αWT αT-β19′C GlyR (P48167 23-497 with the stated changes): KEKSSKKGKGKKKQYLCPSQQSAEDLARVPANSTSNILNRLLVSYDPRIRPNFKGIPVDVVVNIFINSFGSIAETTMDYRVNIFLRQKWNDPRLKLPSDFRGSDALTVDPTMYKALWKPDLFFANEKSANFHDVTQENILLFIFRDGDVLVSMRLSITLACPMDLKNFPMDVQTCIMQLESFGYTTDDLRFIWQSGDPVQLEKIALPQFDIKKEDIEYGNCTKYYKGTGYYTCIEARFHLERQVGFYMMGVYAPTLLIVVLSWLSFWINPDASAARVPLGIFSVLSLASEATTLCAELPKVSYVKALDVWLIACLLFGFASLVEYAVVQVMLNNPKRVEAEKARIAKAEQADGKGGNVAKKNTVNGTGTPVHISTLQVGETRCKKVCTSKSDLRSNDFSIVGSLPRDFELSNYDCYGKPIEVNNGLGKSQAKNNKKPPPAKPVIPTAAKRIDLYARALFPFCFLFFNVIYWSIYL

For `NCC(=O)O` [glycine], in assay [1], the glycine-induced current entry is listed as “no glycine-induced current was detected”. Further, in assay [2], the “Current Imax” value is recorded as 2.19±0.20 µA, the “Current nH” value worked out at 1.45±0.06, the “Fluorescence Fmax” value turned out to be 11.5±0.6% and the “Fluorescence nH” value amounted to 2.31±0.06. Besides, in assay [3], the “Current Imax” value amounted to 2.57±0.14 µA, the “Current nH” value is listed as 2.11±0.11, the “Fluorescence Fmax” value is 8.52±1.07% and the “Fluorescence nH” value was determined as 1.19±0.12. In assay [4], the “Current Imax” value came to 2.46±0.19 µA, the “Current nH” value was 2.73±0.38, the “Fluorescence Fmax” value is on record as 7.58±0.84% and the “Fluorescence nH” value amounted to 1.47±0.12. Besides, in assay [5], the “Current Imax” value came to 1.53±0.09 µA, the “Current nH” value is listed as 2.36±0.32, the “Fluorescence Fmax” value is given as 6.58±1.17% and the “Fluorescence nH” value amounted to 2.10±0.13. Moreover, the “glycine-induced current and fluorescence changes” value in assay [6] is “neither glycine-induced current nor fluorescence changes could be detected”.
